Reference: article PMC10535824, “Tryptophan Substitution in CJ-15,208 (cyclo[Phe-D-Pro-Phe-Trp]) Introduces δ-Opioid Receptor Antagonism, Preventing Antinociceptive Tolerance and Stress-Induced Reinstatement of Extinguished Cocaine-Conditioned Place Preference” (Pharmaceuticals, 2023)
Read-outs that look alike come from different tables or passages of the source. Square brackets hold non-standard residues; d marks the D form. Peptide text beside a SMILES is read from it. 1Nal = N[C@@H](Cc1cccc2ccccc12)C(=O)O; 2Nal = N[C@@H](Cc1ccc2ccccc2c1)C(=O)O; d1Nal = N[C@H](Cc1cccc2ccccc12)C(=O)O; d2Nal = N[C@H](Cc1ccc2ccccc2c1)C(=O)O; Bta = N[C@@H](Cc1csc2ccccc12)C(=O)O; dBta = N[C@H](Cc1csc2ccccc12)C(=O)O

Columns and labels:
C57BL/6J mice [1] = test: 55 °C warm-water tail-withdrawal assay, antinociception after i.c.v. administration; type: in vivo, mouse; set-up: key: ~: Maximum antinociception not achieved, precluding calculation of an ED50 value
Protocol: For intracerebroventricular administration, the macrocyclic peptides were dissolved in dimethyl sulfoxide (DMSO), followed by addition of sterile saline (0.9%) so that the final vehicle was 50% DMSO and 50% saline, and the i.c.v. injections were performed as described previously. This concentration of DMSO was not observed to have antinociceptive or behavioral effects in previous use. All solutions for animal administration were prepared fresh daily.
The 55 °C warm-water tail-withdrawal assay was performed in mice as previously described, with the latency of the mouse to withdraw its tail from the water taken as the endpoint (a cut-off time of 15 s was used in this assay). Antinociception was calculated according to the following formula: % antinociception = 100 × (test latency − control latency)/(15 − control latency). Tail-withdrawal data points are the means of 8–16 mice, unless otherwise indicated, with SEM shown by error bars.
All dose–response lines were analyzed by regression, and ED50 (effective dose producing 50% antinociception) values and 95% C.I. were determined using individual data points from graded dose–-response curves with Prism 8.0 software (GraphPad, La Jolla, CA, USA). Percent antinociception was used to determine within-group effects and to allow comparison to baseline latency in tail-withdrawal experiments. The statistical significance of differences between ED50 values was determined by evaluation of the ED50 value shift via nonlinear regression modeling with Prism software. Significant differences in behavioral data were analyzed by ANOVA (one-way or two-way with repeated measures (RM), as appropriate). Significant results were further analyzed with Sidak’s, Tukey’s, or Dunnett’s multiple comparison post hoc tests, as appropriate. Data for conditioned place preference experiments were analyzed by one-way or two-way RM ANOVA, with analyses examining the main effect of conditioned place preference phase (e.g., pre- or post-conditioning) and the interaction of drug pretreatment and/or exposure. All data are presented as mean ± SEM, with significance set at p < 0.05.

mouse DOR [2] = molecular target: T1, mouse DOR (Mus musculus, UniProt P32300); test: radioligand equilibrium competition binding, DOR; conditions: CHO cell membranes, [3H]DPDPE; mean ± SEM, at least three experiments (D-Nal(1′)^4 n = 2)
T1 construct: expressed in transfected cells
Protocol: (§1) Opioid receptor affinities were determined by equilibrium radioligand binding assays as previously described with membranes from Chinese hamster ovary (CHO) cells stably expressing rat KOR, rat MOR, or mouse DOR using the radioligands [^3H]diprenorphine, [^3H][D-Ala^2,N-MePhe^4,glyol]enkephalin (DAMGO), and [^3H][D-Pen^2,D-Pen^5]enkephalin (DPDPE), respectively. Following determination of IC50 values by nonlinear regression using Prism software (GraphPad Software Co., La Jolla, CA, USA), Ki values were calculated using the Cheng–Prusoff equation [57]. The results are presented as the mean ± SEM from at least three separate experiments, each performed in triplicate.

rat KOR [3] = molecular target: T2, rat KOR (Rattus norvegicus, UniProt P34975); test: radioligand equilibrium competition binding, KOR; conditions: CHO cell membranes, [3H]diprenorphine; mean ± SEM, at least three experiments
T2 construct: expressed in transfected cells
Protocol: as §1

rat MOR [4] = molecular target: T3, rat MOR (Rattus norvegicus, UniProt P33535); test: radioligand equilibrium competition binding, MOR; conditions: CHO cell membranes, [3H]DAMGO; mean ± SEM, at least three experiments
T3 construct: expressed in transfected cells
Protocol: as §1

[5] = metabolism by mouse liver microsomes; type: in vitro ADME; conditions: read-out: t1/2 in mouse liver microsomes
Protocol: The metabolism of the macrocyclic tetrapeptides by mouse liver microsomes was evaluated as previously described, with the amount of peptide remaining determined by LC-MS/MS [55] using [D-MeAla^2]CJ-15,208 [53] as the internal standard.

KOR = molecular target: T4, KOR (Mus musculus, UniProt P33534); test: antagonism of U50,488 antinociception, tail-withdrawal assay; type: in vivo; conditions: peptide i.c.v. (3-300 nmol, Figure 4) 140 min before U50,488 10 mg/kg i.p.
T4 construct: endogenous in cells; host or cells: living adult male C57BL/6J mice
Protocol: ; at this time, the antinociceptive activity of the analogs had dissipated. Antinociception produced by the established opioid agonists was then measured 40 min after their administration. The dose response of KOR or DOR antagonism produced by selected analogs was further determined by evaluating antinociception after administration of one of three additional i.c.v. doses of the analog.

rat KOR [6] = molecular target: T2, rat KOR; conditions: parent peptides; mean ± SEM; cited from earlier work
rat MOR [7] = molecular target: T3, rat MOR; conditions: parent peptides; mean ± SEM; cited from earlier work
mouse DOR [8] = molecular target: T1, mouse DOR; conditions: parent peptides; mean ± SEM; cited from earlier work
MOR, KOR, DOR = test: opioid receptor involvement in antinociception (KO mice / selective antagonist pretreatment), tail-withdrawal assay; type: in vivo, mouse; conditions: dose producing maximum antinociception, i.c.v., KOR KO mice or β-FNA, nor-BNI, naltrindole pretreatment
Protocol: Except for the Bta^4 analog, contributions of the MOR and KOR were assessed in knockout (KO) mice for those receptors; DOR contribution to the antinociceptive activity of the analogs was assessed by pretreating mice with naltrindole (20 mg/kg, i.p., −20 min) prior to administration of analog (Figure 3).
Assessment of DOR involvement in the agonist activity of each macrocyclic peptide was performed by pretreating additional wild-type mice with a single dose of naltrindole (20 mg/kg, i.p.) 20 min in advance of administration of the macrocyclic peptide.

C57BL/6J mice [9] = test: spontaneous locomotor activity (ambulation), CLAMS/Oxymax; type: in vivo, mouse; conditions: i.c.v.; [Nal(2′)^4]CJ-15,208 100 nmol, morphine 30 nmol; 80 min
Protocol: (§2) Respiration rates (in breaths per minute) and animal locomotive activity (as ambulation) were assessed using the Oxymax/CLAMS system (Columbus Instruments, Columbus, OH, USA) as described previously. Mice were habituated to their individual sealed housing chambers for 60 min before testing. […] Pressure monitoring within the sealed chambers measured frequency of respiration. Infrared beams located in the floor measured locomotion as number of beam breaks. Respiration and locomotive data were averaged over 20 min periods for 80 min post-injection of the test compound. Data are presented as % vehicle response ± SEM; ambulation, or breaths per minute.

C57BL/6J mice [10] = test: acute antinociceptive tolerance (dosing at 0 and 8 h); conditions: i.c.v.; for Naïve ED50 (95% C.I.): naïve mice
Protocol: The degree of tolerance was calculated from the shift in ED50 value from the singly to repeatedly treated condition.

C57BL/6J mice [11] = conditions: mouse, in vivo
C57BL/6J mice [12] = test: respiration rate, CLAMS/Oxymax; type: in vivo, mouse; conditions: i.c.v.; [Nal(2′)^4]CJ-15,208 100 nmol, morphine 30 nmol; 80 min
Protocol: as §2

[13] = antinociception at peak response
[14] = acute tolerance, dosing at 0 and 8 h

Compound	ED50 (and 95% C.I.) i.c.v. (C57BL/6J mice [1]; [13])	Ki (mouse DOR [2]) [nM]	Ki (rat KOR [3]) [nM]	Ki (rat MOR [4]) [nM]	further results
O=C1N[C@H](Cc2ccc3ccccc3c2)C(=O)N[C@@H](Cc2ccccc2)C(=O)N2CCC[C@@H]2C(=O)N[C@H]1Cc1ccccc1 [D-Nal(2′)^4, [D-Nal(2′)^4]CJ-15,208] (cyclo(F[dP]F[d2Nal]))	31.2 (22.5–41.9) nmol	> 10000	12.3 ± 1.8	63.8 ± 5	–
O=C1N[C@@H](Cc2ccccc2)C(=O)N2CCC[C@@H]2C(=O)N[C@@H](Cc2ccccc2)C(=O)N[C@H]1Cc1cccc2ccccc12 [Nal(1′)^4, [Nal(1′)^4]CJ-15,208] (cyclo(F[dP]F[1Nal]))	0.24 (0.19–0.31) nmol	1920 ± 120	103 ± 6	110 ± 16	–
O=C1N[C@H](Cc2csc3ccccc23)C(=O)N[C@@H](Cc2ccccc2)C(=O)N2CCC[C@@H]2C(=O)N[C@H]1Cc1ccccc1 [D-Bta^4, [D-Bta^4]CJ-15,208] (cyclo(F[dP]F[dBta]))	–	> 10000	4.29 ± 0.38	84.2 ± 11.8	–
O=C1N[C@@H](Cc2ccccc2)C(=O)N2CCC[C@@H]2C(=O)N[C@@H](Cc2ccccc2)C(=O)N[C@H]1Cc1csc2ccccc12 [Bta^4, [Bta^4]CJ-15,208] (cyclo(F[dP]F[Bta]))	13.2 (9.62–18.2) nmol	1600 ± 360	51.9 ± 4.8	90.3 ± 38.5	half-life [5]: 28 min
cyclo(F[dP]F[dW]) [[D-Trp]CJ-15,208]	–	–	–	–	ED50 (and 95% C.I.) i.c.v. (C57BL/6J mice [1]; symbol where no ED50 could be calculated): ~; antagonism of U50,488 antinociception (KOR antagonism) (KOR): significantly antagonized U50,488-induced antinociception; Ki (rat KOR [6]): 21.8 ± 4.8 nM; Ki (rat MOR [7]): 259 ± 29 nM; Ki (mouse DOR [8]): 4190 ± 860 nM
cyclo(F[dP]FW) [CJ-15,208]	1.74 (0.62–4.82) nmol	–	–	–	Receptors Involved in antinociception (MOR, KOR, DOR): KOR, MOR; antagonism of U50,488 antinociception (KOR antagonism) (KOR): displayed significant KOR antagonism; Ki (rat KOR [6]): 27.4 ± 4.6 nM; Ki (rat MOR [7]): 451 ± 114 nM; Ki (mouse DOR [8]): 1720 ± 350 nM
CN1CC[C@]23c4c5ccc(O)c4O[C@H]2[C@@H](O)C=C[C@H]3[C@H]1C5 [Morphine, reference compound]	2.35 (1.13–5.03) nmol	–	–	–	effect on ambulation vs. vehicle (C57BL/6J mice [9]): significantly increased ambulation; Naïve ED50 (95% C.I.) (C57BL/6J mice [10]): 2.35 (1.13–5.03) nmol; conditioned place preference or aversion (C57BL/6J mice [11]; C57BL/6J): significant (p = 0.03) place preference; effect on respiration rate vs. vehicle (C57BL/6J mice [12]): produced significant, time-dependent respiratory depression
O=C1N[C@@H](Cc2ccccc2)C(=O)N2CCC[C@@H]2C(=O)N[C@@H](Cc2ccccc2)C(=O)N[C@H]1Cc1ccc2ccccc2c1 [Nal(2′)^4, [Nal(2′)^4]CJ-15,208] (cyclo(F[dP]F[2Nal]))	19.5 (15.8–24.0) nmol	3300 ± 360	358 ± 137	583 ± 59	half-life [5]: > 60 min; effect on ambulation vs. vehicle (C57BL/6J mice [9]): not significant; Fold-Shift, Naïve ED50 vs. Second ED50 (C57BL/6J mice [10]; [14]): 0.37; leftward shift in the dose–response curve of the second dose (C57BL/6J mice [10]; [14]): 2.7 fold; Naïve ED50 (95% C.I.) (C57BL/6J mice [10]): 19.5 (15.8–24.0) nmol; conditioned place preference or aversion (C57BL/6J mice [11]): no significant preference or aversion; effect on respiration rate vs. vehicle (C57BL/6J mice [12]): did not significantly impair breathing
O=C1N[C@H](Cc2cccc3ccccc23)C(=O)N[C@@H](Cc2ccccc2)C(=O)N2CCC[C@@H]2C(=O)N[C@H]1Cc1ccccc1 [D-Nal(1′)^4, [D-Nal(1′)^4]CJ-15,208] (cyclo(F[dP]F[d1Nal]))	–	> 10000	21.4 ± 0.7	101 ± 25	–
